Measured values: ChEMBL document CHEMBL1130702, “Novel cytotoxic diterpenes from the stem of Dysoxylum kuskusense” (Bioorg Med Chem Lett, 1998)

What was measured:
Type in all cases: functional, cell-based
Settings in all cases: Homo sapiens
HL-60 [1] = assay: Compound was tested for cytotoxicity against HL-60(TB) leukemia tumor cell line
NCI-H522 = assay: Compound was tested for cytotoxicity against NCI-H522 (lung tumor)cell line
K562 = assay: Compound was tested for cytotoxicity against K-562 (leukemia) cell line
HL-60 [2] = assay: Compound was tested for cytotoxicity against HL-60 (TB) cell line

Structure (SMILES) | EC50 (HL-60 [1]) | EC50 (NCI-H522) | EC50 (K562) | EC50 (HL-60 [2])
CC1=CC(=O)C[C@@]2(C)CC[C@@H](C(C)CC(=O)CC(C)C)C[C@@]12OO (stereo not given in full) | 2.37 µM | – | – | –
CC1=CC(=O)C[C@]2(C)CC[C@@H](C(C)CC(=O)CC(C)C)C[C@@H]12 (stereo not given in full) | – | 4.8 µM | 5.04 µM | 2.25 µM
CC1=CC(=O)C[C@]2(C)CC[C@@H](C(C)CC(=O)CC(C)C)C[C@@]12OO (stereo not given in full) | 6.35 µM | – | – | –
